From patent US8097620B2, “Diazaquinolones that inhibit prolyl hydroxylase activity” (Amgen Inc., priority 2007, dated 2012) come the findings set out here.

Chain of HIF PHD2 (Q9GZT9 whole entry): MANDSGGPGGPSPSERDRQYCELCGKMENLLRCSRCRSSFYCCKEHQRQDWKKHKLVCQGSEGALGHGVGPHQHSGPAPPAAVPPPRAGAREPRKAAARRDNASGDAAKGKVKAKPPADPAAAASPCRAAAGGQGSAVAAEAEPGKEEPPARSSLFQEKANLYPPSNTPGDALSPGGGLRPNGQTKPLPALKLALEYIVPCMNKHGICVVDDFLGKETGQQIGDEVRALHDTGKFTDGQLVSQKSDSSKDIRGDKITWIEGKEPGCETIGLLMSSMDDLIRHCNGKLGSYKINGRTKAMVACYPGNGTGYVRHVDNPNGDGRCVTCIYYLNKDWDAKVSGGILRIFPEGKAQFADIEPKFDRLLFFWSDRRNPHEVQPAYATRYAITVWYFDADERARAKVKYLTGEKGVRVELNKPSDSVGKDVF

The target in the experiment is HIF PHD2 (Homo sapiens, UniProt Q9GZT9). The experiment in a line: PHD2 inhibition assay (TR-FRET, VCB-Eu detection of hydroxylated P564-HIF1α peptide). It counts as biochemical. The following applies: 2 nM PHD2, 100 nM P564-HIF1α peptide, 0.25 μM 2-oxoglutarate, 100 μM FeCl2, 2 mM ascorbic acid, pH 6. On the procedure:
Inhibition of HIF PHD2 activity was quantified utilizing the TR-FRET technology. HIF PHD2 catalyzes a hydroxyl modification on the proline residue of the P564-HIF1α peptide substrate (Biotin-[…] (SEQ ID NO: 7)) resulting in recognition and binding of the europylated Von Hippel-Lindau protein (pVHL), elongin B and elongin C heterotrimeric (VCB-Eu) complex.
The PHD2 inhibition assay was executed by addition of freshly dissolved FeCl2 to 178.57 μM (100 μM final concentration) in PHD2 Reaction Buffer containing 30 mM MES, pH 6, 10 mM NaCl, 0.25% Brij-35, 0.01% BSA, and 1% DMSO. 28 μL of the iron solution and 2 μL of inhibitor compounds serially diluted in 100% DMSO (5% DMSO final) were added to black polypropylene 96-well microtiter plates. To that, 10 μL of 10 nM PHD2 (2 nM final) was added to all wells of the plate except for the 8 wells of column 12 (LO control), and allowed to incubate at room temperature on the shaker for one hour. Column 6 was the HI control containing PHD2 enzyme and 5% DMSO vehicle, but no inhibitor compound. To initiate the PHD2 enzymatic reaction, 10 μL of a solution containing 500 nM P564-HIF1α peptide (100 nM final), 10 mM ascorbic acid (2 mM final), and 1.25 μM 2-oxoglutarate (α-ketoglutarate; 0.25 μM final) in PHD2 Reaction Buffer was added to all wells of the plate and allowed to incubate on the shaker at room temperature for one hour.
The reaction was terminated by addition of 25 μL TR-FRET Buffer (50 mM TRIS-HCl, pH 9, 100 mM NaCl, 0.05% BSA, and 0.5% Tween-20) containing 150 mM succinate (product inhibitor; 50 mM final), 75 nM streptavidin-APC (25 nM final), and 7.5 nM VCB-Eu (2.5 nM final). The TR-FRET detection reagents were placed on a shaker for 1 hour to reach binding equilibrium before reading on the Discovery platform (PerkinElmer). Europium is excited at 315 nm and phosphoresces at 615 nm with a large Stoke's shift. APC, in turn, emits at 655 nm upon excitation at 615 nm. The TR-FRET signal is measured as the ratio of the APC 655 nm signal divided by the internal europium reference 615 nm emission signal.
The POC (percentage of control) was determined by comparing the signal from hydroxylated peptide substrate in the enzyme reaction containing inhibitor compound with that from PHD2 enzyme with DMSO vehicle alone (HI control), and no enzyme (LO control). POC was calculated using the formula: % control (POC)=(cpd−average LO)/(average HI−average LO)*100. Data (consisting of POC and inhibitor concentration in μM) was fitted to a 4-parameter equation (y=A+((B−A)/(1+((x/C)^D))), where A is the minimum y (POC) value, B is the maximum y (POC), C is the x (cpd concentration) at the point of inflection and D is the slope factor) using a Levenburg-Marquardt non-linear regression algorithm.
`Cn1c(=O)c(C(=O)NCC(=O)O)c(O)c2cnc(-c3ccccc3F)nc21` [Example 26, 2-(2-(2-fluorophenyl)-5-hydroxy-8-methyl-7-oxo-7,8-dihydropyrido[2,3-d]pyrimidine-6-carboxamido)acetic acid] registered an IC50 of 1.5 nM.

With `Cn1c(=O)c(C(=O)NCC(=O)O)c(O)c2cnc(-c3ccco3)nc21` [Example 38, 2-(2-(furan-2-yl)-5-hydroxy-8-methyl-7-oxo-7,8-dihydropyrido[2,3-d]pyrimidine-6-carboxamido)acetic acid], inhibition was half-maximal at 2.5 nM (IC50).

For `Cn1c(=O)c(C(=O)NCC(=O)O)c(O)c2cnc(-c3cc4ccccc4[nH]3)nc21` [Example 42, 2-(5-hydroxy-2-(1H-indol-2-yl)-8-methyl-7-oxo-7,8-dihydropyrido[2,3-d]pyrimidine-6-carboxamido)acetic acid], the IC50 came to 3.1 nM.

In the case of `Cn1c(=O)c(C(=O)NCC(=O)O)c(O)c2cc(C3=CCCCC3)nnc21` [Example 6, 2-(3-cyclohexenyl-5-hydroxy-8-methyl-7-oxo-7,8-dihydropyrido[2,3-c]pyridazine-6-carboxamido)acetic acid], 16 nM corresponded to half-maximal inhibition (IC50).

With `Cn1c(=O)c(C(=O)NCC(=O)O)c(O)c2cnc(-c3ccc(N4CCCCC4)cc3)nc21` [Example 32, 2-(5-hydroxy-8-methyl-7-oxo-2-(4-(piperidin-1-yl)phenyl)-7,8-dihydropyrido[2,3-d]pyrimidine-6-carboxamido)acetic acid], 5.3 nM corresponded to half-maximal inhibition (IC50).

Regarding `Cn1c(=O)c(C(=O)NCC(=O)O)c(O)c2cnc(-c3cccc4[nH]ccc34)nc21` [Example 56, 2-(5-hydroxy-2-(1H-indol-4-yl)-8-methyl-7-oxo-7,8-dihydropyrido[2,3-d]pyrimidine-6-carboxamido)acetic acid], half-maximal inhibition (IC50) was put at 5.3 nM.

`Cn1c(=O)c(C(=O)NCC(=O)O)c(O)c2cnc(-c3ccc(Cl)cc3)nc21` [Example 39, 2-(2-(4-chlorophenyl)-5-hydroxy-8-methyl-7-oxo-7,8-dihydropyrido[2,3-d]pyrimidine-6-carboxamido)acetic acid] yielded a concentration for half-maximal inhibition (IC50) of 7.8 nM.

Regarding `Cn1c(=O)c(C(=O)NCC(=O)O)c(O)c2cnc(-c3cccc(F)c3)nc21` [Example 22, 2-(2-(3-fluorophenyl)-5-hydroxy-8-methyl-7-oxo-7,8-dihydropyrido[2,3-d]pyrimidine-6-carboxamido)acetic acid], half-maximal inhibition (IC50) was put at 2.9 nM.

The compound `Cn1c(=O)c(C(=O)NCC(=O)O)c(O)c2cnc(-c3cccc4ncccc34)nc21` [Example 35, 2-(5-hydroxy-8-methyl-7-oxo-2-(quinolin-5-yl)-7,8-dihydropyrido[2,3-d]pyrimidine-6-carboxamido)acetic acid] displayed an IC50 of 2.4 nM.

`Cc1ccc(S(=O)(=O)n2cc(-c3ncc4c(O)c(C(=O)NCC(=O)O)c(=O)n(C)c4n3)c3ccccc32)cc1` [Example 58, 2-(5-hydroxy-8-methyl-7-oxo-2-(1-tosyl-1H-indol-3-yl)-7,8-dihydropyrido[2,3-d]pyrimidine-6-carboxamido)acetic acid] came in with an IC50 of 42 nM.

Regarding `Cn1c(=O)c(C(=O)NCC(=O)O)c(O)c2cnc(-c3cccc(N4CCOCC4)c3)nc21` [Example 53, 2-(5-hydroxy-8-methyl-2-(3-morpholinophenyl)-7-oxo-7,8-dihydropyrido[2,3-d]pyrimidine-6-carboxamido)acetic acid], the IC50 stood at 5 nM.

Regarding `Cn1c(=O)c(C(=O)NCC(=O)O)c(O)c2cnc(C#CC3CC3)nc21` [Example 23, 2-(2-(2-cyclopropylethynyl)-5-hydroxy-8-methyl-7-oxo-7,8-dihydropyrido[2,3-d]pyrimidine-6-carboxamido)acetic acid], the IC50 came to 12 nM.

On to `Cn1c(=O)c(C(=O)NCC(=O)O)c(O)c2cc(-c3ccccc3)nnc21` [Example 2, 2-(5-hydroxy-8-methyl-7-oxo-3-phenyl-7,8-dihydropyrido[2,3-c]pyridazine-6-carboxamido)acetic acid], for which the IC50 amounted to 17 nM.

In turn, `Cn1c(-c2ncc3c(O)c(C(=O)NCC(=O)O)c(=O)n(C)c3n2)cc2ccccc21` [Example 57, 2-(5-hydroxy-8-methyl-2-(1-methyl-1H-indol-2-yl)-7-oxo-7,8-dihydropyrido[2,3-d]pyrimidine-6-carboxamido)acetic acid] registered an IC50 of 14 nM.

With `Cn1c(=O)c(C(=O)NCC(=O)O)c(O)c2cnc(-c3ccc(C#N)cc3)nc21` [Example 52, 2-(2-(4-cyanophenyl)-5-hydroxy-8-methyl-7-oxo-7,8-dihydropyrido[2,3-d]pyrimidine-6-carboxamido)acetic acid], it took 4.1 nM to reach half-maximal inhibition (IC50).

`Cn1c(=O)c(C(=O)NCC(=O)O)c(O)c2cnc(-c3ccccc3N3CCOCC3)nc21` [Example 28, 2-(5-hydroxy-8-methyl-2-(2-morpholinophenyl)-7-oxo-7,8-dihydropyrido[2,3-d]pyrimidine-6-carboxamido)acetic acid]: the IC50 stood at 2.9 nM.

Regarding `Cn1c(=O)c(C(=O)NCC(=O)O)c(O)c2cnc(-c3ccnc4ccccc34)nc21` [Example 45, 2-(5-hydroxy-8-methyl-7-oxo-2-(quinolin-4-yl)-7,8-dihydropyrido[2,3-d]pyrimidine-6-carboxamido)acetic acid], the midpoint of inhibition, the IC50, lay at 2 nM.

With `Cn1c(=O)c(C(=O)NCC(=O)O)c(O)c2cc(Cl)nnc21` [Example 1, 2-(3-chloro-5-hydroxy-8-methyl-7-oxo-7,8-dihydropyrido[2,3-c]pyridazine-6-carboxamido)acetic acid], the midpoint of inhibition, the IC50, lay at 24 nM.

With `Cn1c(=O)c(C(=O)NCC(=O)O)c(O)c2cnc(-c3ccc(N4CCOCC4)cc3)nc21` [Example 29, 2-(5-hydroxy-8-methyl-2-(4-morpholinophenyl)-7-oxo-7,8-dihydropyrido[2,3-d]pyrimidine-6-carboxamido)acetic acid], the half-maximal inhibitory concentration (IC50) stood at 3.7 nM.

Take `COc1ncc2c(O)c(C(=O)NCC(=O)O)c(=O)n(C)c2n1` [Example 12, 2-(5-hydroxy-2-methoxy-8-methyl-7-oxo-7,8-dihydropyrido[2,3-d]pyrimidine-6-carboxamido)acetic acid]: it took 18 nM to reach half-maximal inhibition (IC50).

Turning to `Cn1c(=O)c(C(=O)NCC(=O)O)c(O)c2cnc(N3CCCC4CCCCC43)nc21` (centres unmarked) [Example 21, 2-(5-hydroxy-8-methyl-2-(octahydroquinolin-1(2H)-yl)-7-oxo-7,8-dihydropyrido[2,3-d]pyrimidine-6-carboxamido)acetic acid], the IC50 came out at 152 nM.

In turn, `Cn1c(=O)c(C(=O)NCC(=O)O)c(O)c2cnc(N3CCCCC3)nc21` [Example 11, 2-(5-hydroxy-8-methyl-7-oxo-2-(piperidin-1-yl)-7,8-dihydropyrido[2,3-d]pyrimidine-6-carboxamido)acetic acid] returned a concentration for half-maximal inhibition (IC50) of 16 nM.

Compound `CC(C)Oc1ccccc1-c1cc2c(O)c(C(=O)NCC(=O)O)c(=O)n(C)c2nn1` [Example 9, 2-(5-hydroxy-3-(2-isopropoxyphenyl)-8-methyl-7-oxo-7,8-dihydropyrido[2,3-c]pyridazine-6-carboxamido)acetic acid] returned a half-maximal inhibitory concentration (IC50) of 14 nM.

As to `CC1CCCCN1c1ncc2c(O)c(C(=O)NCC(=O)O)c(=O)n(C)c2n1` (centres unmarked) [Example 16, 2-(5-hydroxy-8-methyl-2-(2-methylpiperidin-1-yl)-7-oxo-7,8-dihydropyrido[2,3-d]pyrimidine-6-carboxamido)acetic acid], the half-inhibitory concentration (IC50) amounted to 52.5 nM.

Consider `CC(C)Oc1cccc(-c2cc3c(O)c(C(=O)NCC(=O)O)c(=O)n(C)c3nn2)c1` [Example 7, 2-(5-hydroxy-3-(3-isopropoxyphenyl)-8-methyl-7-oxo-7,8-dihydropyrido[2,3-c]pyridazine-6-carboxamido)acetic acid], for which the IC50 was determined as 26 nM.

For `Cn1c(=O)c(C(=O)NCC(=O)O)c(O)c2cnc(N3CCOCC3)nc21` [Example 13, 2-(5-hydroxy-8-methyl-2-morpholino-7-oxo-7,8-dihydropyrido[2,3-d]pyrimidine-6-carboxamido)acetic acid], the midpoint of inhibition, the IC50, lay at 240 nM.
